According to US7893085B2, “Aza-benzothiophenyl compounds and methods of use” (Genentech, Inc, priority 2006, dated 2011):

How the values were obtained:
[1] = test system: HCT116 human colorectal carcinoma or A375 human malignant melanoma cells; assay: Cell proliferation assay (CellTiter-Glo); assay type: cell-based; conditions: in either one of the cell lines (HCT116, A375), 72 h
Experimental: Compounds are tested in a cell proliferation assay using the following cell lines:
HCT116 human colbrectal carcinoma (ATCC)
(§1) A375 human malignant melanoma (ATCC)
Both cell lines are maintained in DMEMIF12 (1:1) media (Gibco) supplemented with 10% FCS at 37° C. in a 5% CO2 humidified incubator.
Cells are seeded in 96-well plates at 2,000 cells/well and after 24 hours they are exposed to different concentrations of compounds in 0.83% DMSO. Cells are grown for a further 72 h, and an equal volume of CellTiter-Glo reagent (Promega) is added to each well. This lyses the cells and generates a luminescent signal proportional to the amount of ATP released (and therefore proportional to the number of cells in the well) that can be detected using a multiwell luminometer.
The EC50 is defined as the concentration at which a given compound achieves 50% inhibition of control. EC50 values are calculated using the XLfit software package (version 2.0.5).

[2] = test system: cellular p-ERK in HCT116 or A375 cells; assay: Phospho-ERK cell-based assay (ELISA); conditions: Homo sapiens; in either one of the cell lines (HCT116, A375); 2 h or 24 h
Experimental: Compounds are tested in a cell-based phospho-ERK ELISA using the following cell lines:
HCT116 human colorectal carcinoma (ATCC)
as §1
Both cell lines are maintained in DMEM/F12 (1:1) media (Gibco) supplemented with 10% FCS at 37° C. in a 5% CO2 humidified incubator.
Cells are seeded in 96-well plates at 2,000 cells/well and after 24 h they are exposed to different concentrations of compounds in 0.83% DMSO. Cells are grown for a further 2 h or 24 h, fixed with formaldehyde (2% final) and permeabilised with methanol. Following blocking with TBST-3% BSA, fixed cells are incubated with primary antibody (anti-phospho ERK from rabbit) over-night at 4° C. Cells are incubated with Propidium Iodide (DNA fluorescent dye) and detection of cellular p-ERK is performed using an anti-rabbit secondary antibody conjugated to the fluorescent Alexa Fluor 488 dye (Molecular probes). The fluorescence is analysed using the Acumen Explorer (lTP Labtech), a laser-scanning microplate cytometer, and the Alexa Fluor 488 signal is normalised to the PI signal (proportional to cell number).
The EC50 is defined as the concentration at which a given compound achieves a signal half way between the baseline and the maximum response. EC50 values are calculated using the XLfit software package (version 2.0.5).

SMILES | EC50 [1] | EC50 [2]
O=C(NOC[C@H](O)CO)c1sc2ccncc2c1Nc1ccc(I)cc1F [Example 5, 3-(2-Fluoro-4-iodo-phenylamino)-thieno[3,2-c]pyridine-2-carboxylic acid ((R)-2,3-dihydroxy-propoxy)-amide] | < 10 µM | < 10 µM
O=C(NOCCO)c1sc2c(F)cncc2c1Nc1ccc(I)cc1F [Example 11, 7-Fluoro-3-(2-fluoro-4-iodo-phenylamino)-thieno[3,2-c]pyridine-2-carboxylic acid (2-hydroxy-ethoxy)-amide] |  | < 10 µM
O=C(NOCCO)c1sc2ccncc2c1Nc1ccc(I)cc1F [Example 10, 3-(2-Fluoro-4-iodo-phenylamino)-thieno[3,2-c]pyridine-2-carboxylic acid (2-hydroxyethoxy)-amide] | < 10 µM | < 10 µM
CSc1ccc(Nc2c(C(=O)NOCCO)sc3ccncc23)c(F)c1 [Example 12, 3-(2-Fluoro-4-methylsulfanyl-phenylamino)-thieno[3,2-c]pyridine-2-carboxylic acid (2-hydroxy-ethoxy)-amide] |  | < 10 µM
